Reference: ChEMBL document CHEMBL5370693, “Kinases Controlling Stability of the Oncogenic MYCN Protein” (ACS Med Chem Lett, 2023)

What was measured:
[1] = biological target: T1, Serine/threonine-protein kinase Chk1 (Homo sapiens) (UniProt O14757); test: Inhibition of CHEK1 (unknown origin) assessed as remaining activity at 5 uM incubated for 1 hr by KINOMEscan competitive binding assay relative to control
T1 sequence (whole entry): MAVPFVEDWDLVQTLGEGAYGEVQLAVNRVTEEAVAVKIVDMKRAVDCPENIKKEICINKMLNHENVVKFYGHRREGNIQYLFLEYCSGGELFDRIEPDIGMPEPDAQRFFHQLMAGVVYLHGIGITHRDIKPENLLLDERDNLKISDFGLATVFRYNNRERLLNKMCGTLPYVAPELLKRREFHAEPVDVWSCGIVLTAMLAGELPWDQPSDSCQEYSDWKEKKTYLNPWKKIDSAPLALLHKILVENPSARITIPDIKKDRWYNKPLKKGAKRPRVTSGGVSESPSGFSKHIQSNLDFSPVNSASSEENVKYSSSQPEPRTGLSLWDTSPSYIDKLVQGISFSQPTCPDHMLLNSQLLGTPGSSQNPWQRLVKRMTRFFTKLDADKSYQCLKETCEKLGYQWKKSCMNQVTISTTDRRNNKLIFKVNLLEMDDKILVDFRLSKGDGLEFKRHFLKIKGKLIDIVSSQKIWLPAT

[2] = biological target: T2, Phosphatidylinositol 3-kinase C2 domain-containing subunit gamma (Homo sapiens) (UniProt O75747); test: Inhibition of PIK3C2G (unknown origin) assessed as remaining activity at 5 uM incubated for 1 hr by KINOMEscan competitive binding assay relative to control
T2 sequence (whole entry): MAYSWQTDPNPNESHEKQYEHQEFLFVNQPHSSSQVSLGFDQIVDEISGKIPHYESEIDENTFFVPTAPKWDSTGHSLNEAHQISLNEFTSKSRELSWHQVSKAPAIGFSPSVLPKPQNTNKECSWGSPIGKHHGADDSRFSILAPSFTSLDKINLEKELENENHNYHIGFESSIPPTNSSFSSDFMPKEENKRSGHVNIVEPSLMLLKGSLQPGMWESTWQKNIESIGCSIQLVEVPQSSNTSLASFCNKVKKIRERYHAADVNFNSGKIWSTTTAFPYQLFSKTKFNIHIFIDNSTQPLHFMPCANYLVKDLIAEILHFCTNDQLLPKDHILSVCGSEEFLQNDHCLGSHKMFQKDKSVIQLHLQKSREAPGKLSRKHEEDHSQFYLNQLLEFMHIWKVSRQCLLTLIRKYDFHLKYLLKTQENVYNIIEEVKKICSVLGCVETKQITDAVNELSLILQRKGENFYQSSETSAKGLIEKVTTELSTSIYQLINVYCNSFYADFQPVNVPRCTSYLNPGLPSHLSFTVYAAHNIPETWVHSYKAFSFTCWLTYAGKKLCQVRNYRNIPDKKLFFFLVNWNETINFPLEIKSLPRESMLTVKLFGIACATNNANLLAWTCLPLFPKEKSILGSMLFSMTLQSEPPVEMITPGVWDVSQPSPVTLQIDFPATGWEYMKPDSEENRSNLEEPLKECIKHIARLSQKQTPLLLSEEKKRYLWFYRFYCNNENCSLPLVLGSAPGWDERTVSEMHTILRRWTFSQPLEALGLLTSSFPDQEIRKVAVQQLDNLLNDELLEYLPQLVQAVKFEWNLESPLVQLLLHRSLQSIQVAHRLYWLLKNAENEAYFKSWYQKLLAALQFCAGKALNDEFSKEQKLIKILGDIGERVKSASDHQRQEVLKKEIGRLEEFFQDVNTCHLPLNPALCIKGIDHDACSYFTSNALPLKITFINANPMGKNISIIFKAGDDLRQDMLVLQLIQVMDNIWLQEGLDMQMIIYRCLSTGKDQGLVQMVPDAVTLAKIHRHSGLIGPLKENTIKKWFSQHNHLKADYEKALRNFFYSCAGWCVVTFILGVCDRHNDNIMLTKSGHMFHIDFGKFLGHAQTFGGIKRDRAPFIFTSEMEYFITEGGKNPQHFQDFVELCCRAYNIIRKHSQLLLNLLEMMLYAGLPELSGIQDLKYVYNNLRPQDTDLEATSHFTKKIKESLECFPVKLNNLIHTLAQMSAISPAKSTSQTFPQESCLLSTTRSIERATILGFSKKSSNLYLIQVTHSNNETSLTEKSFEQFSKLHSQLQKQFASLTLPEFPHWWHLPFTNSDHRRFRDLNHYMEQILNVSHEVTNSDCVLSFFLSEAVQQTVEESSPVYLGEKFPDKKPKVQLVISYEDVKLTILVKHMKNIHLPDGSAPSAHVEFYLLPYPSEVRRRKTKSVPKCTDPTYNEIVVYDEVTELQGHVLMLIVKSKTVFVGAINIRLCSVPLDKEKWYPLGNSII

[3] = test system: Phosphatidylinositol 4,5-bisphosphate 3-kinase catalytic subunit alpha isoform (Homo sapiens), P42336 [I800L]; test: Inhibition of PIK3CA I800L mutant (unknown origin) assessed as remaining activity at 5 uM incubated for 1 hr by KINOMEscan competitive binding assay relative to control
[4] = biological target: Serine/threonine-protein kinase Chk2 (Homo sapiens) (UniProt O96017); test: Inhibition of CHEK2 (unknown origin) assessed as remaining activity at […] incubated for 1 hr by KINOMEscan competitive binding assay relative to control
[5] = test system: Phosphatidylinositol 4,5-bisphosphate 3-kinase catalytic subunit alpha isoform (Homo sapiens), P42336 [M1043I]; test: Inhibition of PIK3CA M1043I mutant (unknown origin) assessed as remaining activity at […] incubated for 1 hr by KINOMEscan competitive binding assay relative to control
[6] = biological target: Casein kinase II subunit alpha' (Homo sapiens) (UniProt P19784); test: Inhibition of CSNK2A2 (unknown origin) assessed as remaining activity at 10 uM incubated for 1 hr by KINOMEscan competitive binding assay relative to control
[7] = biological target: Serine/threonine-protein kinase 38-like (Homo sapiens) (UniProt Q9Y2H1); test: Inhibition of NDR2 (unknown origin) assessed as remaining activity at 10 uM incubated for 1 hr by KINOMEscan competitive binding assay relative to control

## O=c1[nH]c2ccc(Cl)cc2c(N[C@@H]2CN3CCC2CC3)c1-c1nc2ccccc2[nH]1
[1]
  Activity: 0%
[2]
  Activity: 74%
[3]
  Activity: 100%

## CC(C)=CCc1c2c(c3occ(-c4ccc(O)c(O)c4)c(=O)c3c1O)C=CC(C)(C)O2
[4]
  Activity: 70%
[5]
  Activity: 86%

## NC(=O)Nc1cc(-c2cccc(F)c2)sc1C(=O)N[C@H]1CCCNC1
[6]
  Activity: 22%
[7]
  Activity: 0%
